From ChEMBL document CHEMBL5465560, “Selectivity Literature for EUbOPEN Chemogenomic Library” (2024)
Each block holds one compound with its values, some of them ahead of it.

Legend:
[1] = molecular target: T1, NUAK family SNF1-like kinase 2 (Homo sapiens) (UniProt Q9H093); conditions: at 10 µM
T1 sequence (whole entry): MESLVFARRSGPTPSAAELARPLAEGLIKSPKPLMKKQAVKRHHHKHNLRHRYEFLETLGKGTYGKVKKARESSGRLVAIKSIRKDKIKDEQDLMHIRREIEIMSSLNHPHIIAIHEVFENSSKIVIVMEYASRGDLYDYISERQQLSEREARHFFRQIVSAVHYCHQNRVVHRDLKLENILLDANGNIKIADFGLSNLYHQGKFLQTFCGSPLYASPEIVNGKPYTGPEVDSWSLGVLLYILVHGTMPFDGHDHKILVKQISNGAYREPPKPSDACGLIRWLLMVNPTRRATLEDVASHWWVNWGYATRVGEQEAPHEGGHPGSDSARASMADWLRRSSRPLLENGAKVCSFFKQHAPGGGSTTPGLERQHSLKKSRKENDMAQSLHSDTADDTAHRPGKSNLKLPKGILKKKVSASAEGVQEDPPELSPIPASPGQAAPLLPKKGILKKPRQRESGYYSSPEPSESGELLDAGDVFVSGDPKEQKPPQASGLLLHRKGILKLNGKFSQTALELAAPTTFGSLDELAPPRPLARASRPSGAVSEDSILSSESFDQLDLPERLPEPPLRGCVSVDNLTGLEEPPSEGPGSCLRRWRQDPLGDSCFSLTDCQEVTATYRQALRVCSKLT

[2] = molecular target: Serine/threonine-protein kinase 24 (Homo sapiens) (UniProt Q9Y6E0); assay: Selectivity interaction (ActivX KiNativ screen (kinase selectivity in THP-1 cell lysates)) EUB0000639a STK24; type: subcellular; conditions: lysate, at 1 µM
Serine/threonine-protein kinase 24 (Homo sapiens), sequence (Q9Y6E0 whole entry, looked up): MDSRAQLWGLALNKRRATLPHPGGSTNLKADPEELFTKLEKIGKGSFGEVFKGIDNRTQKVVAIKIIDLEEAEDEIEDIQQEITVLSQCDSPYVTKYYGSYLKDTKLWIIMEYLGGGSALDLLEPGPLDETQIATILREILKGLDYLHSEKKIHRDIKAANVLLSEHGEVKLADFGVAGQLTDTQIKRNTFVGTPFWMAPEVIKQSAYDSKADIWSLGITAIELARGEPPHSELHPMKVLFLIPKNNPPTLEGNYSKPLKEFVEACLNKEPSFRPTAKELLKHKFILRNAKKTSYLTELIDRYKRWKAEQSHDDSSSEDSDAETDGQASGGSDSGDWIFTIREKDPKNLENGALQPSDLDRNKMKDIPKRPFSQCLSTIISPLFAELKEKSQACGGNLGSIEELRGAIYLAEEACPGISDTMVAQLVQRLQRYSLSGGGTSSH

[3] = molecular target: Tyrosine-protein kinase Fer (Homo sapiens) (UniProt P16591); assay: Selectivity interaction (ActivX KiNativ screen (kinase selectivity in THP-1 cell lysates)) EUB0000639a FER; type: subcellular; conditions: lysate, at 1 µM
Tyrosine-protein kinase Fer (Homo sapiens), sequence (P16591 whole entry, looked up): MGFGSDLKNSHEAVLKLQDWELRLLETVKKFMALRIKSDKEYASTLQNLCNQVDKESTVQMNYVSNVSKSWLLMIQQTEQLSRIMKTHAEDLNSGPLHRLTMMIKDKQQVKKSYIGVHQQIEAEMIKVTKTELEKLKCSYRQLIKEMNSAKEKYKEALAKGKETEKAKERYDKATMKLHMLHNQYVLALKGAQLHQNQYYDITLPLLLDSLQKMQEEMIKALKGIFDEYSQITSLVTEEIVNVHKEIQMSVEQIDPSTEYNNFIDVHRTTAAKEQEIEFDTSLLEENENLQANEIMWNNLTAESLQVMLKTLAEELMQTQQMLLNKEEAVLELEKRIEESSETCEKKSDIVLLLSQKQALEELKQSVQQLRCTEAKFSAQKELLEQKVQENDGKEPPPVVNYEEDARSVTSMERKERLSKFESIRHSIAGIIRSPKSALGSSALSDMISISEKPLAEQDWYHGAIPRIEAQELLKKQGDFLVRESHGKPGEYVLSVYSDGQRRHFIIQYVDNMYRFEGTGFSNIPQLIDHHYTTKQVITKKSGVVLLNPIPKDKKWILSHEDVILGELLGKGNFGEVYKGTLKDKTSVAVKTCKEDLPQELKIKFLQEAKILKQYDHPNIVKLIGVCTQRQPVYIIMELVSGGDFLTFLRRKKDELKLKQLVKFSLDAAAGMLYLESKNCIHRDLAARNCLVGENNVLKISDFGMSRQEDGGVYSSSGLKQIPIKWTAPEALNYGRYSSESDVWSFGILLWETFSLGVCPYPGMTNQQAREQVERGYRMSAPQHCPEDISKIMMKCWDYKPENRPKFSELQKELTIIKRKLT

[4] = molecular target: T2, Histone-lysine N-methyltransferase SETD7 (Homo sapiens) (UniProt Q8WTS6); conditions: at 1 µM
T2 sequence (whole entry): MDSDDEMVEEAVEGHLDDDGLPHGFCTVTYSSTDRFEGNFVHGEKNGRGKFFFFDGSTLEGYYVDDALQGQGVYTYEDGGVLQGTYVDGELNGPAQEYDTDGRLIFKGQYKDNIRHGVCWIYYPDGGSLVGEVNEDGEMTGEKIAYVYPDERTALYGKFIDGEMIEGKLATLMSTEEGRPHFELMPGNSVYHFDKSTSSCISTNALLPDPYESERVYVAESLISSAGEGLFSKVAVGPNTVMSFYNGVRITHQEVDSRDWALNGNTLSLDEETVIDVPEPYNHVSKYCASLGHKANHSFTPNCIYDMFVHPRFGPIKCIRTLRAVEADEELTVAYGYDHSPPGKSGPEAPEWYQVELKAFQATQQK

[5] = molecular target: T3, Cyclin-dependent kinase 11A (Homo sapiens) (UniProt Q9UQ88); conditions: at 10 µM
T3 sequence (whole entry): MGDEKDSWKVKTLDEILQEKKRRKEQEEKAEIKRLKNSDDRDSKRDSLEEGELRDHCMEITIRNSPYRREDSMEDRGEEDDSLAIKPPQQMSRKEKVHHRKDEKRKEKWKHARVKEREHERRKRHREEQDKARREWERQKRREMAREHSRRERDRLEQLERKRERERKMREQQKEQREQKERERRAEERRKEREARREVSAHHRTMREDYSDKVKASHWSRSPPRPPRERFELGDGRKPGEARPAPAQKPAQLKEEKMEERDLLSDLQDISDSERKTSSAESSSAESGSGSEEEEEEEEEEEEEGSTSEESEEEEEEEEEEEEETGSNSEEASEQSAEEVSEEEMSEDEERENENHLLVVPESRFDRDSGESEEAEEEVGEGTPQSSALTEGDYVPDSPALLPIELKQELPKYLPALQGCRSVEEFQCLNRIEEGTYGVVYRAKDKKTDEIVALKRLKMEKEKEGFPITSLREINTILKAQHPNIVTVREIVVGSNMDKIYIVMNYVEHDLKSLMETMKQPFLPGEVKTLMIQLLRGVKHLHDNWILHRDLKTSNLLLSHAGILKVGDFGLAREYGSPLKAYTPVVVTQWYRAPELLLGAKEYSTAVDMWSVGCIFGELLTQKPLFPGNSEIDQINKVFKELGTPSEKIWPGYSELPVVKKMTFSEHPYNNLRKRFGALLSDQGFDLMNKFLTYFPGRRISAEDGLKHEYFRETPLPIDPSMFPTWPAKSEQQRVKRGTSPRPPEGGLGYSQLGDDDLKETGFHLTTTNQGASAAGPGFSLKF

[6] = molecular target: Serine/threonine-protein kinase/endoribonuclease IRE1 (Homo sapiens) (UniProt O75460); assay: Selectivity interaction (KinomeScan (DiscoverX)) EUB0001079a ERN1; conditions: at 1 µM
Serine/threonine-protein kinase/endoribonuclease IRE1 (Homo sapiens), sequence (O75460 19-977 limits assumed): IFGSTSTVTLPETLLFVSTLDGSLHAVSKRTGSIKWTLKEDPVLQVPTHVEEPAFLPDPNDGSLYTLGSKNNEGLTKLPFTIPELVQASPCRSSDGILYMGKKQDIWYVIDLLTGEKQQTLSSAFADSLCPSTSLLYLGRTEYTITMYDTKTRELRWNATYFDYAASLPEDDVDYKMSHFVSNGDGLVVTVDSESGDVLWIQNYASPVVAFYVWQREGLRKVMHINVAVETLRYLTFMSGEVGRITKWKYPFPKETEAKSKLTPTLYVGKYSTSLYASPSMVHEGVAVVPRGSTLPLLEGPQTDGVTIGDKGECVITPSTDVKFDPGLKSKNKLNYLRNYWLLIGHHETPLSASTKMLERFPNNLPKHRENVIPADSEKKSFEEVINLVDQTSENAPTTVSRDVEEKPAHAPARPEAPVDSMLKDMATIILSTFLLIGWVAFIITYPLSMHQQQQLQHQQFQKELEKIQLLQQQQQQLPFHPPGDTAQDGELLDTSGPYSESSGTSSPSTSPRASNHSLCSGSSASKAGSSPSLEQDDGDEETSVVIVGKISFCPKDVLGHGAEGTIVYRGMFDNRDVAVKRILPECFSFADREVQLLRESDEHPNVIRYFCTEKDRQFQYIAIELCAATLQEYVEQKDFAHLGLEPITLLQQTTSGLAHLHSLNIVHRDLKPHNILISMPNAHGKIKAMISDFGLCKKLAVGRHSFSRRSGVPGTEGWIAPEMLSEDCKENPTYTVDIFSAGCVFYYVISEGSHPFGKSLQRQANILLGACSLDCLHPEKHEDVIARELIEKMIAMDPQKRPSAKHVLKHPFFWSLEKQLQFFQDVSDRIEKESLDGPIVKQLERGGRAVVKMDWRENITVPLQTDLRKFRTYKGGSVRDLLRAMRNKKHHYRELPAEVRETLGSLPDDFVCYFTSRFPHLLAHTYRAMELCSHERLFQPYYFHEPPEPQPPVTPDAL

[7] = molecular target: Receptor tyrosine-protein kinase erbB-4 (Homo sapiens, UniProt Q15303); assay: Selectivity interaction (Upstate Kinase Profiler service (Millipore)) EUB0000056c ERBB4; conditions: at 1 µM
Receptor tyrosine-protein kinase erbB-4, sequence (Q15303 whole entry): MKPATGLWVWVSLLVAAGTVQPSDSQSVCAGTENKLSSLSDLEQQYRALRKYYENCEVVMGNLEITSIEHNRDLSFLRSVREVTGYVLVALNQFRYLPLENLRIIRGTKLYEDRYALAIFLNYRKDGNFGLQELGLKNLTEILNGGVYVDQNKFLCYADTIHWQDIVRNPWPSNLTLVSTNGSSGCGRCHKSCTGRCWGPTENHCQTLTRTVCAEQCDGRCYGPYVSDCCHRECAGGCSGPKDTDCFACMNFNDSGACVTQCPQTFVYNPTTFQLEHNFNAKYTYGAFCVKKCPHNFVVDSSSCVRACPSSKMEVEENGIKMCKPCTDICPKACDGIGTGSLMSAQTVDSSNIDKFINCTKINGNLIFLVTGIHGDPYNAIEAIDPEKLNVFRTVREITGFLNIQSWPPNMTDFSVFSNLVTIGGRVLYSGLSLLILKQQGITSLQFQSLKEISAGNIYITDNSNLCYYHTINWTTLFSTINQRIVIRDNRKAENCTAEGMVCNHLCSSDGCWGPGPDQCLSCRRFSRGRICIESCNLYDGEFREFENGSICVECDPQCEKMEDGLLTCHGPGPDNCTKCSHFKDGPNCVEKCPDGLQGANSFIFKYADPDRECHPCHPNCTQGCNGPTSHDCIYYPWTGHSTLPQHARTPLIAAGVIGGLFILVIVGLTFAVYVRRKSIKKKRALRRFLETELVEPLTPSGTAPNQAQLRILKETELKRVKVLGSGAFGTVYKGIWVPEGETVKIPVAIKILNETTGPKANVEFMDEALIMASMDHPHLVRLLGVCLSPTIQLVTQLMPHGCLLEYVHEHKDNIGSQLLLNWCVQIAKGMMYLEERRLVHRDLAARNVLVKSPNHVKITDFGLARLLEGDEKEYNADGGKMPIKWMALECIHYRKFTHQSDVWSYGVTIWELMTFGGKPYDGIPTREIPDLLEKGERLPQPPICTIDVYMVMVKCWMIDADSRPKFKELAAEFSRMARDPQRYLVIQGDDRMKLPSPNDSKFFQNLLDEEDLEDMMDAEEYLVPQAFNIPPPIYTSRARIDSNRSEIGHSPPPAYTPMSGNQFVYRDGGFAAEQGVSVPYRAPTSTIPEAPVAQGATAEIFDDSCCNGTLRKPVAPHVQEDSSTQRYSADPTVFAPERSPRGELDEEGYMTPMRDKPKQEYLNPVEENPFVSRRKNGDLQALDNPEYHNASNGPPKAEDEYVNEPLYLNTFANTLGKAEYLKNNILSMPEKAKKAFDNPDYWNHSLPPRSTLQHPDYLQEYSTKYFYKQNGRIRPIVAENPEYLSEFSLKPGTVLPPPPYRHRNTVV

[8] = molecular target: Protein-tyrosine kinase 6 (Homo sapiens, UniProt Q13882); assay: Selectivity interaction (KinomeScan (DiscoverX)) EUB0000045b PTK6
Protein-tyrosine kinase 6, sequence (Q13882 whole entry, looked up): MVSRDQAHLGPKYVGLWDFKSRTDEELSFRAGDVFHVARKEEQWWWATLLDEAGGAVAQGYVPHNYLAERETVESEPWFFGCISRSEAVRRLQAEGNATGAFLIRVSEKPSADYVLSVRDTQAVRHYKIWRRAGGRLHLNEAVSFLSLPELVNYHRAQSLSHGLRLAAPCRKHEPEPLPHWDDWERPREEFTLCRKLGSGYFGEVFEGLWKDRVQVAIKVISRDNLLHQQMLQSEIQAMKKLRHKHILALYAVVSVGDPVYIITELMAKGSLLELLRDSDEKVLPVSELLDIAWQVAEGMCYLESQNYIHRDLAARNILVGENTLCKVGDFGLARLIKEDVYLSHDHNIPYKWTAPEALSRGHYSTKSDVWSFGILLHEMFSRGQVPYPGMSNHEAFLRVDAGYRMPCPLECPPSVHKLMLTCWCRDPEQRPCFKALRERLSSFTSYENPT

[9] = molecular target: Tyrosine-protein kinase Fyn (Homo sapiens) (UniProt P06241); assay: Selectivity interaction (KinomeScan (DiscoverX)) EUB0001619a FYN; conditions: at 1 µM
Tyrosine-protein kinase Fyn (Homo sapiens), sequence (P06241 2-537 limits assumed): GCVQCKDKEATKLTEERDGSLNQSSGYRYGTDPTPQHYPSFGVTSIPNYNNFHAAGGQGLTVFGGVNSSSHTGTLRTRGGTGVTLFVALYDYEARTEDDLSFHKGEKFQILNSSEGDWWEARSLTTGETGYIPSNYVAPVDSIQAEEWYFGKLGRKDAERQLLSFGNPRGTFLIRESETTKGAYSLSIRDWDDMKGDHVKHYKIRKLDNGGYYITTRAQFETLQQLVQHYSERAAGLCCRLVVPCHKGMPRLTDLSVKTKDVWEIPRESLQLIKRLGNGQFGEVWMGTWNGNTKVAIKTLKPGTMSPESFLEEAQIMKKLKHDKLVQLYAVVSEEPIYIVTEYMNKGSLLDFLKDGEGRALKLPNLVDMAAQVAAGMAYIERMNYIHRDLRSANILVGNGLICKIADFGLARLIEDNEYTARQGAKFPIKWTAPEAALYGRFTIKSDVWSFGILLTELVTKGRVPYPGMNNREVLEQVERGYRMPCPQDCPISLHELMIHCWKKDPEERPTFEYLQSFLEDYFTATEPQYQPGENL

[10] = molecular target: Serine/threonine-protein kinase 32B (Homo sapiens) (UniProt Q9NY57); assay: Selectivity interaction (KinomeScan (DiscoverX)) EUB0000618a STK32B; conditions: at 10 µM
[11] = molecular target: Casein kinase I isoform gamma-3 (Homo sapiens) (UniProt Q9Y6M4); assay: Selectivity interaction (SelectScreen profiling (Invitrogen)) EUB0000607a CSNK1G3; conditions: at 2 µM
Casein kinase I isoform gamma-3 (Homo sapiens), sequence (Q9Y6M4 whole entry, looked up, canonical isoform): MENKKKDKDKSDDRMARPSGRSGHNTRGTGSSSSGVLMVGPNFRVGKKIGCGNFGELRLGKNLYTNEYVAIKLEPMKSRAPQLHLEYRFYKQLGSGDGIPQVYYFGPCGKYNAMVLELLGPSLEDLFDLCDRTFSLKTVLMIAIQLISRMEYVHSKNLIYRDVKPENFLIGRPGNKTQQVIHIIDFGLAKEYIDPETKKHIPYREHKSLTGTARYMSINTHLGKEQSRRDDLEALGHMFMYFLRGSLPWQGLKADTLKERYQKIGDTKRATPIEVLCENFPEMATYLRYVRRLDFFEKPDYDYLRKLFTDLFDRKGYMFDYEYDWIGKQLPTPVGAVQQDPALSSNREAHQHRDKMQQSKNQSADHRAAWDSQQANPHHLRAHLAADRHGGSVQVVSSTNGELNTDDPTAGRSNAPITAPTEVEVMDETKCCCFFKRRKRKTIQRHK

SMILES: Cc1cc([C@@H](C)Nc2ccccc2C(=O)O)c2nc(N3CCOCC3)cc(=O)n2c1 [AZD-6482]
% of control [1]: 84%

% of inhibition [2]: 5.9%
% of inhibition [3]: -8.9%
SMILES: CC[C@@H]1[C@H](F)C(=O)N[C@@H]1COc1nccc2cc(C(N)=O)c(OC)cc12 [ZIMLOVISERTIB]

% activity [4]: > 90%
SMILES: CNCCN1CCC(c2cc(CN(C)C(=O)c3cccc(Oc4ccccc4)c3)ccn2)CC1

% of control [5]: 100%
SMILES: CCN(CC)CCCCNc1ncc2cc(-c3cc(OC)cc(OC)c3)c(NC(=O)NC(C)(C)C)nc2n1

SMILES: Nc1cnc(N2CCc3cc(S(=O)(=O)Nc4c(F)cc(Cl)cc4F)cc(N4CCCC4=O)c32)nc1 [TP-020n]
% of control [6]: 100%

% of inhibition [7]: 12%
SMILES: Cc1ccc(-c2ccc3c(ccc4sc5c(c43)NC[C@@H](C)NC5=O)n2)cn1

SMILES: C=CC(=O)Nc1cc(-n2c(=O)ccc3cnc4ccc(-c5ccc(NS(C)(=O)=O)cc5)cc4c32)ccc1C
% of control ([8]; at 1 µM): 100%
% of control ([8]; at 10 µM): 77%

SMILES: N#Cc1cccc(-c2c[nH]c3ncnc(N4CCOCC4)c23)c1
% of control [9]: 86%

SMILES: O[C@H]1CC[C@H](Nc2ncc3nc(Nc4c(F)cc(F)cc4F)n([C@H]4CCOC4)c3n2)CC1
% of control [10]: 87%

SMILES: CNC(=O)Nc1ccc(-c2nc(N3CC4CCC(C3)O4)c3cnn(C4CCC5(CC4)OCCO5)c3n2)cc1
% of inhibition [11]: -1%
